According to PMC7496286, “The Selectivity of Fosfosal for STAT5b over STAT5a is Mediated by Arg566 in the Linker Domain” (Chembiochem, 2020):
Positions count from the first letter of the chain named. “And” between values parts separate entries of the source, which are not always exact repeats. Equal entries are not always repeated.

Experiments:
[1] = target: T1, STAT5b SH2 domain (Homo sapiens, UniProt P51692); assay: Fluorescence polarization (FP)-based competitive binding assay, wild-type STAT5b
T1 construct: His; made in house
T1 sequence (P51692 1-787): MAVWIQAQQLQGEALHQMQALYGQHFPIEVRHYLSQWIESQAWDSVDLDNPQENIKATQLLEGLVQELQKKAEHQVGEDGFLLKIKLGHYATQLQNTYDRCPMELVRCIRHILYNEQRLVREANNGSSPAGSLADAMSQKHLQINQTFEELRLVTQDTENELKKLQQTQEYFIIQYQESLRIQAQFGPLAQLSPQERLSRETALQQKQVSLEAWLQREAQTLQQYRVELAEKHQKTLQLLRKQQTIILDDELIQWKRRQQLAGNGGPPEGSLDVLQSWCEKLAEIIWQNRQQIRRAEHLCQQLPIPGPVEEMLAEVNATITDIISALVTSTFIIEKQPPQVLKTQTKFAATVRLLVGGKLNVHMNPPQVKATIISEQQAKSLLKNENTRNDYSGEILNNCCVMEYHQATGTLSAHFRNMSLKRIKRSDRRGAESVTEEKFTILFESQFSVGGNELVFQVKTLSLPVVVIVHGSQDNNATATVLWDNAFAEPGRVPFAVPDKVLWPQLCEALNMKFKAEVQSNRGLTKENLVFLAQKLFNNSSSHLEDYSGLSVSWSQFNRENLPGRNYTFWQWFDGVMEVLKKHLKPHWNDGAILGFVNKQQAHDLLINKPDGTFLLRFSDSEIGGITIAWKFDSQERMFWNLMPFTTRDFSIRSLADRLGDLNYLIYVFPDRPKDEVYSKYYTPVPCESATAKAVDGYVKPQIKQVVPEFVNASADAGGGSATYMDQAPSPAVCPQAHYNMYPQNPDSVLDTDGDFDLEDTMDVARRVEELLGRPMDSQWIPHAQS
Description: (§1) Fluorescence polarization assays
(§2) The ability of test compounds to displace 5-carboxyfluorescein-GY(PO3H2)LVLDKW (final concentration: 10 nM) from the SH2 domain of STAT5a/b proteins was analyzed. Proteins […]
(§3) was applied in dilution series comprising the following concentrations: 0.024 – 200 µM […]
(§4) and 0.146 – 600 µM (STAT5b Arg566Glu), respectively. The assays were performed in buffer containing 10 mM Tris, 50 mM NaCl, 1 mM DTT, 1 mM EDTA and 0.1% (v/v) NP-40. Fosfosal was dissolved in DMSO. STAT5a/b proteins and fosfosal were incubated at room temperature for 1 h before adding peptide. Samples were transferred to 384-well microtiter plates and fluorescence polarization was read after a further 1 h incubation time. All measurements were performed in triplicate (n=3), except for STAT5b (n=6) and STAT5a Trp566Arg (n=4). Percent binding was calculated based on a logarithmic curve fit using OriginPro 8G software. IC50 values were converted to Ki values using the published equation.[4] […]
[2] N. Elumalai, A. Berg, K. Natarajan, A. Scharow, T. Berg, Angew. Chem. Int. Ed. 2015, […]
[3] M. Gräber, W. Janczyk, B. Sperl, N. Elumalai, C. Kozany, F. Hausch, T. A. Holak, T.
(§5) [4] Z. Nikolovska-Coleska, R. Wang, X. Fang, H. Pan, Y. Tomita, P. Li, P. P. Roller, K.
(§6) Krajewski, N. G. Saito, J. A. Stuckey, S. Wang, Anal. Biochem. 2004, 332, 261-273.

[2] = target: T2, STAT5b Met644Lys (Homo sapiens, UniProt P51692, M644K); assay: FP-based competitive binding assay, STAT5b Met644Lys
T2 construct: His; made in house
T2 sequence (P51692 1-787 M644K): T1 sequence (P51692 1-787) with M644K
Description: as §1, §2, §3, §4, §5, §6

| SMILES | Kd ([1]; Kd, fluorescent tracer peptide binding to STAT5b) | Kd [2] [µM] | selectivity for STAT5b over STAT5a ([1]; Ki STAT5a versus Ki STAT5b) | IC50 ([1]; wild-type STAT5b) [µM] | Ki ([1]; wild-type STAT5b, Ki calculated from IC50 with published equation, n=6) [µM] | IC50 ([2]; STAT5b Met644Lys) [µM] | Ki ([2]; STAT5b Met644Lys, Ki calculated from IC50) [µM] |
| --- | --- | --- | --- | --- | --- | --- | --- |
| CC(C)C[C@H](NC(=O)[C@H](Cc1ccc(OP(=O)(O)O)cc1)NC(=O)CNC(=O)c1ccc2c(c1)C(=O)OC21c2ccc(O)cc2Oc2cc(O)ccc21)C(=O)N[C@H](C(=O)N[C@@H](CC(C)C)C(=O)N[C@@H](CC(=O)O)C(=O)N[C@@H](CCCCN)C(=O)N[C@@H](Cc1c[nH]c2ccccc12)C(=O)O)C(C)C [5-carboxyfluorescein-GY(PO3H2)LVLDKW] | 0.082 µM and 0.095 µM | 0.026 | – | – | – | – | – |
| O=C(O)c1ccccc1OP(=O)(O)O [fosfosal, O‐phosphorylated salicylic acid] | – | – | fivefold | 59.5 ± 3.6 | 29.3 ± 1.8 | 36.6 ± 2 | 17.2 ± 0.9 |
